Test results as given in paper PMC8972196, “A Set of Experimentally Validated Decoys for the Human CC Chemokine Receptor 7 (CCR7) Obtained by Virtual Screening” (Frontiers in Pharmacology, 2022).
Where two headings read alike, the source gives them in different places.

Target: T1, human CCR7 (Homo sapiens, UniProt P32248)
T1 construct: expressed in transfected cells
T1 sequence (P32248 25-378): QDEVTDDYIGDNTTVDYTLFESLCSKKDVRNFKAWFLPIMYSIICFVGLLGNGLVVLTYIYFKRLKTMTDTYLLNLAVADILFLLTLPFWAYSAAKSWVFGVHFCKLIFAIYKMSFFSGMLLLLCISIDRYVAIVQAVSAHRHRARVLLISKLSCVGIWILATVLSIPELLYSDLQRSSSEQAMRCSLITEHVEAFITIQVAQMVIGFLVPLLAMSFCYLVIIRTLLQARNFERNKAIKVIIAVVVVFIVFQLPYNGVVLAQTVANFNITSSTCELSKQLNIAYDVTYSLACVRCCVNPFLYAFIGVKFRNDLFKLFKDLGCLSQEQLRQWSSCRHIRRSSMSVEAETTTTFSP
Assay: CCL19-induced calcium mobilization assay, U87.CD4 cells expressing CCR7
Format: cell-based
Conditions: for IC50: read-out: IC50 [μM] block CCL19 induced calcium signaling
How it was run: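 U87.CD4 cells stably expressing human CCR7, CXCR2 or CCR5 were seeded at 20,000 cells/well and incubated overnight at 37°C and 5% CO2. Cells were then incubated for 45 min at room temperature in the dark before calcium responses were recorded. CCR7 responses were induced with CCL19 and CXCR2 responses with CXCL8.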

[1] = CCL19 induced calcium signaling
[2] = classification as decoy or active on CCR7
[3] = CCL19-induced calcium signaling
[4] = classification of tested compounds as decoy or active

| IC50 [1] | Decoy – 0 Active – 1 [2] | IC50 [3] | Decoy – 0 Active – 1 [4] | SMILES |
| --- | --- | --- | --- | --- |
| > 50 µM | 0 | – | – | O=C(NCc1ccccc1F)N1CCC(c2ccc3c(c2)OCO3)C(O)C1 (stereo not drawn) [C180, O=C(NCc1ccccc1F)N1CCC(c2ccc3c(c2)OCO3)C(O)C1] |
| – | – | > 50 µM | 0 | CN(C)C(=O)c1cccc(NC(=O)NCCC2=CCCCC2)c1 [C127, CN(C)C(=O)c1cccc(NC(=O)NCCC2=CCCCC2)c1] |
| > 50 µM | 0 | – | – | O=C(NCc1cccnc1)c1ccccc1NS(=O)(=O)c1ccc2c(c1)OCCO2 [C239, c1ccc(c(c1)C(=O)NCc2cccnc2)NS(=O)(=O)c3ccc4c(c3)OCCO4] |
| – | – | > 50 µM | 0 | O=S1(=O)N=C(NCc2ccccn2)c2ccccc21 [C149, O=S1(=O)N=C(NCc2ccccn2)c2ccccc21] |
| > 50 µM | 0 | – | – | CC[C@@H](NC(=O)c1cc(-c2cccc(OC)c2)n[nH]1)c1nc(C)c(C)s1 [C159, CC[C@@H](NC(=O)c1cc(-c2cccc(OC)c2)n[nH]1)c1nc(C)c(C)s1] |
| – | – | > 50 µM | 0 | FC(F)(F)c1cc(CNC(=S)NCc2ccccc2)cc(C(F)(F)F)c1 [C050, S=C(NCC1=CC=CC=C1)NCC2=CC(C(F)(F)F)=CC(C(F)(F)F)=C2] |
| – | – | > 50 µM | 0 | CC1(C)[C@H]2CC[C@@]1(CNc1c(NCc3cc(C(F)(F)F)cc(C(F)(F)F)c3)c(=O)c1=O)[C@H](N1CCCC1)C2 [C019, O=C1C(NC[C@]23CC[C@H](C3(C)C)C[C@H]2N4CCCC4)=C(NCC5=CC(C(F)(F)F)=CC(C(F)(F)F)=C5)C1=O] |
| – | – | > 50 µM | 0 | O=C1NC[C@H](C(=O)N(Cc2ccco2)C2CC2)N1 [C151, O=C1NC[C@H](C(=O)N(Cc2ccco2)C2CC2)N1] |
| – | – | > 50 µM | 0 | COC(=O)c1sccc1Nc1c(NCc2ccc(Cl)cc2)c(=O)c1=O [C009, COC(=O)c1sccc1Nc1c(NCc2ccc(Cl)cc2)c(=O)c1=O] |
| – | – | > 50 µM | 0 | Cc1cccnc1[C@H](N[C@H]1CCN(CC(F)(F)F)C1=O)C(C)C [C138, Cc1cccnc1[C@H]([NH2+][C@H]1CCN(CC(F)(F)F)C1=O)C(C)C] |
| – | – | > 50 µM | 0 | Cc1cnc([C@@H](C)CNC(=O)Nc2ccc3c(c2)S(=O)(=O)CC3)s1 [C113, Cc1cnc([C@@H](C)CNC(=O)Nc2ccc3c(c2)S(=O)(=O)CC3)s1] |
| – | – | > 50 µM | 0 | Cc1c(C(=O)NCC2CC2)sc2ncnc(NCCc3ccccn3)c12 [C093, Cc1c(C(=O)NCC2CC2)sc2ncnc(NCCc3ccccn3)c12] |
| > 50 µM | 0 | – | – | O=C1CCC(C(=O)N2CCCC2c2ccc3c(c2)OCO3)N1 (stereo not drawn) [C231, O=C1CCC(C(=O)N2CCCC2c2ccc3c(c2)OCO3)N1] |
| – | – | > 50 µM | 0 | O=C(CNc1c(NCc2ccc3c(c2)OCO3)c(=O)c1=O)N1CCCC1 [C010, O=C(CNc1c(NCc2ccc3c(c2)OCO3)c(=O)c1=O)N1CCCC1] |
| > 50 µM | 0 | – | – | CCC1(C(N)=O)CCCN(C(=O)NCc2c(Cl)cccc2Cl)C1 (stereo not drawn) [C165, CCC1(C(N)=O)CCCN(C(=O)NCc2c(Cl)cccc2Cl)C1] |
| > 50 µM | 0 | – | – | COc1ccc(S(=O)(=O)NC(c2ccc(F)cc2)c2nccn2C)cc1 (stereo not drawn) [C267, Cn1ccnc1C(c2ccc(cc2)F)NS(=O)(=O)c3ccc(cc3)OC] |
| > 50 µM | 0 | – | – | COc1cccc(N2CC(NC(=O)c3cccc4ccccc34)CC2=O)c1 (stereo not drawn) [C188, COc1cccc(N2CC(NC(=O)c3cccc4ccccc34)CC2=O)c1] |
| > 50 µM | 0 | – | – | O=C1CC(C(=O)NC2CCCc3ccccc32)Cc2nc(NC(=O)C3CCC3)sc21 (stereo not drawn) [C226, O=C1CC(C(=O)NC2CCCc3ccccc32)Cc2nc(NC(=O)C3CCC3)sc21] |
| – | – | > 50 µM | 0 | Cc1cc(NCCc2nccs2)nc(-c2cccc([N+](=O)[O-])c2)n1 [C097, Cc1cc(NCCc2nccs2)nc(-c2cccc([N+](=O)[O-])c2)n1] |
| – | – | > 10 µM | 0 | CCNC(=O)CNc1ccc(C)c(C(=O)N(C)C)c1 [C072, CCNC(=O)CNc1ccc(C)c(C(=O)N(C)C)c1] |

| IC50 [1] | Decoy – 0 Active – 1 [2] | IC50 [3] | Decoy – 0 Active – 1 [4] | SMILES |
| --- | --- | --- | --- | --- |
| – | – | > 50 µM | 0 | COc1ccc2ccccc2c1CNc1c(N2CCSCC2)c(=O)c1=O [C004, COc1ccc2ccccc2c1CNc1c(N2CCSCC2)c(=O)c1=O] |
| > 50 µM | 0 | – | – | O=C(NC1CC(C(=O)O)c2ccccc21)C1CCCN(C(=O)N2CCCC2)C1 (stereo not drawn) [C197, O=C(NC1CC(C(=O)[O-])c2ccccc21)C1CCCN(C(=O)N2CCCC2)C1] |
| – | – | > 10 µM | 0 | CCCNC(=O)CNc1ccc(C)c(C(=O)N(C)C)c1 [C066, CCCNC(=O)CNc1ccc(C)c(C(=O)N(C)C)c1] |
| – | – | > 10 µM | 0 | Cc1ccc(C(NC(=O)Nc2ccc(C(N)=O)c(Cl)c2)C(C)(C)C)o1 (stereo not drawn) [C056, Cc1ccc(C(NC(=O)Nc2ccc(C(N)=O)c(Cl)c2)C(C)(C)C)o1] |
| > 50 µM | 0 | – | – | Cc1nc[nH]c1C(=O)NC1CC(=O)N(Cc2ccccc2Cl)C1 (stereo not drawn) [C274, Cc1nc[nH]c1C(=O)NC1CC(=O)N(Cc2ccccc2Cl)C1] |
| – | – | > 50 µM | 0 | C[C@@H](CNC(=O)N[C@H]1CCO[C@@H](c2ccccc2)C1)c1ccsc1 [C108, C[C@@H](CNC(=O)N[C@H]1CCO[C@@H](c2ccccc2)C1)c1ccsc1] |
| – | – | > 50 µM | 0 | COC(=O)c1ccccc1Nc1c(NCC2CC2)c(=O)c1=O [C016, COC(=O)c1ccccc1Nc1c(NCC2CC2)c(=O)c1=O] |
| > 50 µM | 0 | – | – | CC1CN(C(=O)c2cc3c(OC(F)(F)F)cccc3[nH]2)CC(=O)N1 (stereo not drawn) [C176, CC1CN(C(=O)c2cc3c(OC(F)(F)F)cccc3[nH]2)CC(=O)N1] |
| > 50 µM | 0 | – | – | Cc1cc(NCCn2cccn2)c2ccc(C(F)(F)F)cc2n1 [C162, Cc1cc(NCCn2cccn2)c2ccc(C(F)(F)F)cc2[nH+]1] |
| – | – | > 50 µM | 0 | O=C(NCc1ccccc1)c1cn(C2CN(C(=O)C3CC3)C2)nn1 [C081, O=C(NCc1ccccc1)c1cn(C2CN(C(=O)C3CC3)C2)nn1] |
| – | – | > 50 µM | 0 | C[C@@H]1CCN(Cc2ccccc2)C[C@H]1Nc1ccc([N+](=O)[O-])c(C(N)=O)c1 [C117, C[C@@H]1CC[N@H+](Cc2ccccc2)C[C@H]1Nc1ccc([N+](=O)[O-])c(C(N)=O)c1] |
| – | – | > 10 µM | 0 | NC(=O)c1cc(NCC(=O)NCc2ccco2)ccc1Cl [C067, NC(=O)c1cc(NCC(=O)NCc2ccco2)ccc1Cl] |
| – | – | > 50 µM | 0 | CC[C@@H](NS(=O)(=O)NCc1ccccc1)c1cc(C)ccn1 [C137, CC[C@@H](NS(=O)(=O)NCc1ccccc1)c1cc(C)ccn1] |
| > 50 µM | 0 | – | – | CN(C)C(=O)c1ccc(CN2CCCC2c2cccc(Cl)c2)[nH]1 (stereo not drawn) [C287, CN(C)C(=O)c1ccc(CN2CCCC2c2cccc(Cl)c2)[nH]1] |
| – | – | > 50 µM | 0 | CN(C)C(=O)c1cccc(N[C@H]2CCCN(Cc3cccc(O)c3)C2)n1 [C111, CN(C)C(=O)c1cccc(N[C@H]2CCC[N@H+](Cc3cccc(O)c3)C2)n1] |
| > 50 µM | 0 | – | – | Cc1ccccc1C(O)CNC(=O)NCCc1cccc(C(N)=O)c1 (stereo not drawn) [C217, Cc1ccccc1C(O)CNC(=O)NCCc1cccc(C(N)=O)c1] |
| > 50 µM | 0 | – | – | Cc1c(C(=O)NC2CC2c2ccc(F)cc2F)[nH]c2c1C(=O)CCC2 (stereo not drawn) [C205, Cc1c(C(=O)NC2CC2c2ccc(F)cc2F)[nH]c2c1C(=O)CCC2] |
| > 50 µM | 0 | – | – | CC1CN(Cc2ccccc2)CCC1N(C)CC(=O)NC12CC3CC(CC(C3)C1)C2 (stereo not drawn) [C281, CC1CN(Cc2ccccc2)CCC1N(C)CC(=O)NC12CC3CC(CC(C3)C1)C2] |
| – | – | > 10 µM | 0 | Cc1cc(NCC(=O)N(C)Cc2ccco2)ccc1C(=O)N(C)C [C060, Cc1cc(NCC(=O)N(C)Cc2ccco2)ccc1C(=O)N(C)C] |

| SMILES | IC50 [1] | Decoy – 0 Active – 1 [2] | IC50 [3] | Decoy – 0 Active – 1 [4] |
| --- | --- | --- | --- | --- |
| Cc1ccc(N[C@H]2CS(=O)(=O)C[C@H]2OC(=O)c2ccccc2)cc1 [C120, Cc1ccc(N[C@H]2CS(=O)(=O)C[C@H]2OC(=O)c2ccccc2)cc1] | – | – | > 50 µM | 0 |
| CNC(=O)c1ccc(C=CC(=O)N(C2CC2)C(C)c2ccco2)cc1 (stereo not drawn) [C055, CNC(=O)c1ccc(C=CC(=O)N(C2CC2)C(C)c2ccco2)cc1] | – | – | > 10 µM | 0 |
| Cc1ccc(S(=O)(=O)N(CCC(=O)NC(C)CO)c2ccccc2)cc1 (stereo not drawn) [C250, Cc1ccc(cc1)S(=O)(=O)N(CCC(=O)NC(C)CO)c2ccccc2] | > 50 µM | 0 | – | – |
| Cc1ccc(S(=O)(=O)C(CNS(=O)(=O)c2ccc(F)cc2)c2cccnc2)cc1 (stereo not drawn) [C262, Cc1ccc(cc1)S(=O)(=O)C(CNS(=O)(=O)c2ccc(cc2)F)c3cccnc3] | > 50 µM | 0 | – | – |
| O=[N+]([O-])c1ccc(C(O)CNC(=S)NCc2ccc3c(c2)OCO3)cc1 (stereo not drawn) [C030, OC(CNC(=S)NCc1ccc2OCOc2c1)c1ccc(cc1)[N+]([O-])=O] | – | – | > 30 µM | 0 |
| NC(=O)C1CC(O)CN1C(=S)Nc1ccc(S(=O)(=O)N2CCOCC2)cc1 (stereo not drawn) [C028, NC(=O)C1CC(O)CN1C(=S)Nc1ccc(cc1)S(=O)(=O)N1CCOCC1] | – | – | > 30 µM | 0 |
